One assay addresses Cannabinoid receptor 1 (Homo sapiens, UniProt P21554). The assay is described as follows: Displacement of [H3]-CP-55940 from human recombinant CB1 receptor expressed in CHO cells. In kind it is cell-based.
The target in assay [1] is T1, Cannabinoid receptor 2 (Homo sapiens, UniProt P34972). The assay is described as follows: Agonist activity at human recombinant CB2 receptor expressed in CHO cells assessed as inhibition of forskolin-induced accumulation of cAMP. In kind it is functional, cell-based.
The target of assay [2] is T1, Cannabinoid receptor 2. Description: Displacement of [H3]-CP-55940 from human recombinant CB2 receptor expressed in CHO cells. Type of assay: cell-based.
The species entered for another assay is Homo sapiens. The assay is described as follows: Selectivity ratio of Ki for human recombinant CB1 receptor to Ki for human recombinant CB2 receptor.

Broadly, the Ki is the dissociation constant of the complex between target and ligand, obtained from inhibition or displacement. For orientation: IC50 means the concentration at which inhibition is half-maximal.

Chain of Cannabinoid receptor 1 (P21554 whole entry, looked up): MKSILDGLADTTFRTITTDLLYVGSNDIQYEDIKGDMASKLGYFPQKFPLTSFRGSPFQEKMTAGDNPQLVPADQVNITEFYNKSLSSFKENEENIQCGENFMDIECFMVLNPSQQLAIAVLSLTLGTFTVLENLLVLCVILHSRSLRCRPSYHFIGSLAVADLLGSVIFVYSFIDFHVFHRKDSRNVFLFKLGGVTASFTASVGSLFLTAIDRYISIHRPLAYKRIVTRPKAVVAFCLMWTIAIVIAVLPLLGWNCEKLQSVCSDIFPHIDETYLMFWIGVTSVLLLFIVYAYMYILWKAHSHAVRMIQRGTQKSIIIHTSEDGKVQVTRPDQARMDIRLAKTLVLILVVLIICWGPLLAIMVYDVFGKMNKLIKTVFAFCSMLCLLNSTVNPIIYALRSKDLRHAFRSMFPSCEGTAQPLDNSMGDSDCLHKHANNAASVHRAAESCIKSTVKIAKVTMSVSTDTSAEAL
T1 sequence (P34972 whole entry): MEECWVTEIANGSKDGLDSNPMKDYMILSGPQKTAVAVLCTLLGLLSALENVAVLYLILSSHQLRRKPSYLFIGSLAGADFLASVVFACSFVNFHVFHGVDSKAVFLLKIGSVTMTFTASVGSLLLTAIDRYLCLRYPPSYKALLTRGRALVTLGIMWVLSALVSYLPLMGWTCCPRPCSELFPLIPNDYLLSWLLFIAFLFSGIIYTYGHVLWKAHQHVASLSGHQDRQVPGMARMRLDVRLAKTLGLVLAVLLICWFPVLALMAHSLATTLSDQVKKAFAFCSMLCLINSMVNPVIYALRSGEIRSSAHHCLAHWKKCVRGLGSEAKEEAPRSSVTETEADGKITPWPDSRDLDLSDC

On to `CCCCn1c(C)c(C)cc(NC(=O)c2ccccc2C)c1=O`, for which, on Cannabinoid receptor 1, the Ki was 390 nM. Moreover, the IC50 on Cannabinoid receptor 2 [1] was 13 nM. `CCCCn1c(C)c(C)cc(Oc2nc3ccccc3o2)c1=O`: the Ki on Cannabinoid receptor 2 [2] came to 976 nM. `CCCCn1ccc(C)c(Oc2nc3ccccc3o2)c1=S`: at Cannabinoid receptor 2 [2], the inhibition constant (Ki) worked out at 235 nM.

For `CCCCn1c(C)c(C)cc(NC(=O)c2cccc(C)c2)c1=O`, the inhibition constant (Ki) on Cannabinoid receptor 1 is 343 nM; at Cannabinoid receptor 2 [2], 42 nM. On to `CCN1C(=O)C(Sc2nc3ccccc3o2)c2ccccc2C1C` (stereo unspecified), for which the values for the inhibitory constant (Ki) on Cannabinoid receptor 1 and on Cannabinoid receptor 2 [2] were above 5000 nM and 42 nM, respectively. As to `CCn1c(C)c(C)cc(Oc2nc3ccccc3o2)c1=S`, on Cannabinoid receptor 2 [2], the inhibition constant Ki worked out at 3850 nM. As to `CCCCn1c(C)c(C)cc(NC(=O)c2ccccc2F)c1=O`, the inhibitory constant (Ki) at Cannabinoid receptor 1 was 617 nM; at Cannabinoid receptor 2 [2], 88 nM. `CCCCn1c(C)c(C)cc(NC(C)=O)c1=O`: the Ki on Cannabinoid receptor 1 and at Cannabinoid receptor 2 [2] was above 5000 nM throughout. As for `CCCCn1c(C)c(C)cc(NC(=O)Cc2ccccc2)c1=O`, the results for the Ki on Cannabinoid receptor 1 and on Cannabinoid receptor 2 [2] were above 5000 nM and 1310 nM, respectively. As for `CCCCn1c(C)c(C)cc(NC(=O)c2ccccc2Cl)c1=O`, on Cannabinoid receptor 1, the Ki is 391 nM. Consider `CCCCn1cccc(Oc2nc3ccccc3o2)c1=S`, for which the inhibition constant (Ki) on Cannabinoid receptor 2 [2] was 490 nM. Still for that read-out and setting: the same measure for `CCCn1c(C)c(C)cc(Oc2nc3ccccc3o2)c1=S`: 276 nM. For `CCCCn1c(C)c(C)cc(NC(=O)c2ccc3ccccc3c2)c1=O`, the Ki at Cannabinoid receptor 1 was above 5000 nM; on Cannabinoid receptor 2 [2], 768 nM.

`CCCCCn1c(C)c(C)cc(Oc2nc3ccccc3o2)c1=S`: the inhibition constant (Ki) on Cannabinoid receptor 2 [2] stood at 214 nM. For the compound `CCCCn1c(C)c(C)cc(NC(=O)c2ccccc2)c1=O`, the inhibition constant Ki at Cannabinoid receptor 1 was 1380 nM; at Cannabinoid receptor 2 [2], 89 nM.

As for `CCCCn1c(C)c(C)cc(NC(=O)c2cccc3ccccc23)c1=O`, in the assay filed under Homo sapiens, the Ratio Ki was determined as 1.6. The inhibition constant Ki at Cannabinoid receptor 1 worked out at 19 nM; on Cannabinoid receptor 2 [2], 12 nM.

Regarding `CCCCn1c(C)c(C)cc(NC(=O)c2ccc(C)cc2)c1=O`, the Ki on Cannabinoid receptor 1 amounted to 854 nM; on Cannabinoid receptor 2 [2] it was 72 nM. Regarding `CCCCCCn1c(C)c(C)cc(Oc2nc3ccccc3o2)c1=S`, the inhibition constant Ki on Cannabinoid receptor 2 [2] came out at 609 nM.

As for `CN1CCCCC1Cn1cc(C(=O)c2cc([N+](=O)[O-])ccc2I)c2ccccc21` (stereo unspecified), the Ratio Ki in the assay listed under Homo sapiens came out at 80. In the case of `CCCCn1cc(C)cc(Oc2nc3ccccc3o2)c1=S`, the inhibition constant Ki at Cannabinoid receptor 2 [2] came out at 236 nM.

Source of the values: ChEMBL document CHEMBL2346633, “Design, synthesis, and binding mode prediction of 2-pyridone-based selective CB2 receptor agonists” (Bioorg Med Chem, 2013).
